Measurements from article PMC7160673, “A Degenerate Peptide Library Approach to Reveal Sequence Determinants of Methyllysine-Driven Protein Interactions” (Frontiers in Cell and Developmental Biology, 2020).

Key:
Format in all cases: binding
[1] = system: Abcam #ab8895, anti-H3K4me1; test: Histone peptide microarray, Abcam ab8895; details: Abcam ab8895 (anti-H3K4me1) hits, average signal per peptide
[2] = system: Active Motif #39161, anti-H3K9me3; test: Histone peptide microarray, Active Motif 39161; details: Active Motif 39161 (anti-H3K9me3) hits
[3] = system: ABClonal #A2355, anti-H3K4me1; test: Histone peptide microarray, ABclonal A2355; details: Abclonal A2355 (anti-H3K4me1) hits
Procedure: (§1) Peptide microarrays were fabricated using an Aushon 2470 microarrayer and used as described ([Cornett et al., 2017]) with the following modifications. Protein and antibody hybridization steps were performed in buffer containing 25 mM HEPES pH 7.5, 100 mM NaCl, 0.5% BSA (w/v), and 0.1% NP-40. Slides were washed 3 × 5 min in PBS supplemented with 0.1% Tween-20 between each hybridization step. Antibodies used were primary anti-GST (Sigma #7781, 1:2,000 dilution) and an AlexaFluor 647-labeled secondary antibody (Life Technologies A-21245, 1:5,000 dilution). […] Full lists of peptides queried by array analysis are in Supplementary Table S2.

[4] = system: 53BP1 TTD; test: Histone peptide microarray, 53BP1 TTD; details: 53BP1 TTD hits, average signal per peptide
In short: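 Binding of protein or antibody to arrayed histone peptides read by AlexaFluor 647 fluorescence, with anti-GST primary (1:2,000) and labelled secondary (1:5,000) for GST-fused domain. Hybridisations in HEPES pH 7.5 buffer with 100 mM NaCl, 0.5% BSA and 0.1% NP-40; triple PBS-Tween washes between steps.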

[5] = system: Millipore #07-449, anti-H3K27me3; test: Histone peptide microarray, Millipore 07-449; details: Millipore 07-449 (anti-H3K27me3) hits, average signal per peptide
[6] = system: CST 9733 (anti-H3K27me3); test: Histone peptide microarray, CST 9733; details: histone peptide array signal normalized to the highest peptide average per subarray, hits; CST 9733 LOT:14 dilution 1:5,000
Procedure: as §1

Substance	Avg Signal [1]	Avg Signal [2]	Avg Signal [3]	Avg Signal [4]	Avg Signal [5]	Avg Signal [6]
Ac-SGRGK(Ac)GGKGLGK(Ac)GGAKRHRKVLR-Peg-Biot [Peptide H4K5acK12ac]	0.0343	0.02456	0.01286	0.08013	0.01271	
AR(Me)TK(Me2)QTARKSTGGKAPRKQL-K(Biot)-NH2 [H3.1R2me1K4me2]	0.2976	0.0007938	0.4048	0.4867		0.0008431
ACitTK(Me3)QTARK(Ac)STGGK(Ac)APRK(Ac)QL-K(Biot)-NH2 [H3.1Cit2K4me3K9acK14acK18ac]		0.03654	0.0002223	0.1358	0.0318	0.00661
Ac-SGRGQGGQGLGK(Ac)GGAQRHRQVLR-Peg-Biot [H4K12acK5QK8QK16QK20Q]	0.02356	0.02202	0.0006964		0.0006189	0.0003661
ARTK(Me2)QTARKSTGGKAPRKQL-K(Biot)-NH2 [Peptide H3.1K4me2]	0.3093	0.001961	0.3078	0.3009		
Ac-pSGR(Me2a)GK(Ac)QGGKARAKAKTR-Peg-Biot [H2AS1pR3me2aK5ac]	0.08644	0.0003455	0.05587	0.1102		0.0004026
Ac-SGRGK(Ac)GGK(Me)GLGK(Ac)GGAK(Ac)RHRKVLR-Peg-Biot [H4K5acK8me1K12acK16ac]	0.006645	0.001214	0.003516			7.434e-5
ARTK(Ac)QTARKSTGGKAPRK(Ac)QL-K(Biot)-NH2 [H3.1K4acK18ac]	0.002862	0.0001961	0.001249	0.07704		
Ac-IAQDFK(Me2)TDLRF-Peg-K(Biot)-NH2 [Peptide H3.1K79me2]			0.0001532	0.2119	0.002961	
ARTK(Me)QTARK(Ac)STGGKAPRK(Ac)QL-K(Biot)-NH2 [H3.1K4me1K9acK18ac]	0.7729	0.0008903	0.6625	0.06582		
ARTK(Me3)QTARK(Ac)pSTGGK(Ac)APRK(Ac)QL-K(Biot)-NH2 [H3.1K4me3K9acS10pK14acK18ac]		0.01388	0.02489	0.1468	0.01919	0.002027
ARTK(N3)QTARKSTGGKAPRKQL-K(Biot)-NH2 [Peptide H3.1K4N3]	0.03034		0.03523	0.07618		
ARTK(Me)QTARKSTGGKAPRKQL-K(Biot)-NH2 [Peptide H3.1K4me1]	0.89		0.7621	0.08871		
AR(Me2a)TKQTARKSTGGKAPRKQL-K(Biot)-NH2 [Peptide H3.1R2me2a]	0.1119	0.00368	0.0139	0.05357	0.004979	
KSAPSpTGGVK(Me)KPHRYRPGT-G-K(Biot)-NH2 [H3.3K36meT32p]	0.005437	0.00231	0.00279		0.0077	0.002226
ARTK(Me2)QpTARK(Ac)STGGK(Ac)APRK(Ac)QL-K(Biot)-NH2 [H3.1K4me2T6pK9acK14acK18ac]	0.2093		0.3869	0.3467		0.0006457
AR(Me2a)TK(Me2)QTARKSTGGKAPRKQL-K(Biot)-NH2 [H3.1R2me2aK4me2]	0.2655	0.0008405	0.325	0.2614	0.008316	
ARTK(Ac)QTARKSTGGK(Ac)APRK(Ac)QL-K(Biot)-NH2 [H3.1K4acK14acK18ac]	0.001503		0.005007	0.1071	0.004978	
ARTK(Me2)QTARK(Ac)STGGKAPRK(Ac)QL-K(Biot)-NH2 [H3.1K4me2K9acK18ac]	0.4062	0.009454	0.4042	0.5101		

Substance	Avg Signal [1]	Avg Signal [2]	Avg Signal [3]	Avg Signal [4]	Avg Signal [5]	Avg Signal [6]
Ac-SGRGK(Ac)QGGKARAKAKTR-Peg-Biot [Peptide H2AK5ac]	0.04469		0.0257	0.06555		
ARTK(Me2)QTARK(Ac)STGGK(Ac)APRK(Ac)QL-K(Biot)-NH2 [H3.1K4me2K9acK14acK18ac]	0.4999		0.4093	0.5398	0.02042	
ARTK(Me2)QpTARKSTGGKAPRKQL-K(Biot)-NH2 [Peptide H3.1K4me2T6p]	0.1917	0.000965	0.3499	0.2267		0.0001379
ARTK(Me)QTARKSTGGKAPRK(Ac)QL-Peg-Biot [H3.1K4me1K18ac]	0.7343		0.5708		0.002272	1.355e-5
ARTKQTARK(Ac)STGGK(Ac)APRK(Ac)QL-K(Biot)-NH2 [H3.1K9acK14acK18ac]	0.2691	0.001438	0.01044	0.1031		
ARTKQTARK(Me2)STGGKAPRKQLATKAARK(Me)SAPAT-Peg-Biot [H3.1K9me2K27me1]	0.3474	0.02404	0.05183		0.004141	
Ac-SGRGK(Ac)GGK(Me)GLGK(Ac)GGAKRHRKVLR-Peg-Biot [H4K5acK8me1K12ac]	0.003463	0.01545	0.01786		0.005126	
AR(Me2a)pTK(Me3)QTARKSTGGKAPRKQL-K(Biot)-NH2 [H3.1R2me2aT3pK4me3]	0.001405		0.002084	0.03111	0.007597	
ATKAARKSAPATGGVK(Me)KPHRYRPG-GK(Biotin)-OH [Peptide H3.1K36me1]	0.0206	0.001641	0.006039		0.002073	
Ac-SGRGKGGKGLGKGGAK(Ac)RHRKVLR-Peg-Biot [Peptide H4K16ac]	0.0007834		0.00197	0.07097	0.001899	
ARTK(Me)QTARK(Ac)STGGK(Ac)APRK(Ac)QL-K(Biot)-NH2 [H3.1K4me1K9acK14acK18ac]	0.9702	0.005174	0.8066	0.194		
Ac-SGRGK(Me)GGKGLGKGGAKRHRKVLR-Peg-Biot [Peptide H4K5me1]	0.01832	0.04055	0.006523		0.002242	
Ac-APRKQLATK(Me)AARKSAPATGG-Peg-K(Biot)-NH2 [Peptide H3.1K23me1]	0.124	0.004448	0.3577		0.003618	
Ac-SGRGK(Ac)QGGK(Ac)ARAK(Ac)AK(Ac)TR-Peg-Biot [H2AK5acK9acK13acK15ac]		0.005245	0.0056	0.0113	0.001671	
Ac-APRKQLATKAARK(Me2)pSAPSTGG-Peg-Biot [H3.3K27me2S28p]		0.009021	0.002617		0.003767	0.004223
AR(Me2s)TK(Me2)QTARKSTGGKAPRKQL-K(Biot)-NH2 [H3.1R2me2sK4me2]	0.2778		0.3527	0.2755		0.003211
Ac-IAQDFK(Me3)TDLRF-Peg-K(Biot)-NH2 [Peptide H3.1K79me3]	0.06064		0.03778	0.03452		
Ac-SGRGKGGKGLGK(Me)GGAKRHRKVLR-Peg-Biot [Peptide H4K12me1]	0.009402	0.001118	0.01394		0.0009635	0.0001351
Ac-APRKQLAT-NleAARKSAPS-Peg-Biot [Peptide H3.3K23-Nle]		0.003975	0.0003163		0.001042	0.0003783
